Results taken from US20240335547A1, “MODIFIED CHOLIC ACID CONJUGATES” (priority 2022, published 2024).
In brackets after ≈: the same amount, converted by molar mass.

What was measured:
Format in all cases: cell-based
human coronavirus 229E = experiment: Therapeutic activity against human coronavirus 229E in HFF cells; conditions: Human coronavirus 229E, HFF; added 24 hours post infection, cells cultured for two weeks, cell viability; read-out: EC50
Procedure: (1) HFF cells (5×104) were seeded with 1 ml of DMEM media supplemented with 10% FBS in each well of four 24-well tissue culture plates. (2) Cell were cultured for 3 days until HFF cells in each well attained 90% confluency (media was changed 1 day before infection). 10 μl of the 10-time diluted original solution of coronavirus, about 1×10^5 PFU were added into each well. Infection was allowed to proceed overnight. (3) The media was changed 24 hours post infection. CSA-44 was added to test their anti-viral effects. Ten different concentrations of the drug were tested. They were 15 μg/ml, 10 μg/ml, 9 μg/ml, 8 μg/ml, 7 μg/ml, 6 μg/ml, 5 μg/ml, 4 μg/ml, 3 μg/ml, and 2 μg/ml with 0 μg/ml as the control. Each concentration has 12 wells for test. Cells were cultured for two weeks, and cell viability was quantified. CSA-44 was effective in inhibiting viral replication and growth. The values of EC50 (where EC is the concentration of the active that gives 50% of the maximal response) of CSA-44 is identified as 4 μg/ml.
(1) HFF cells (5×104) were seeded with 1 ml of DMEM media supplemented with 10% FBS in each well of four 24-well tissue culture plates. (2) Cells were cultured for 3 days until HFF cells in each well attained 90% confluency (media was changed 1 day before infection). Ten μl of the 10-time diluted original solution of coronavirus, about 1×10^5 PFU, were added into each well. Infection was allowed to proceed overnight. (3) The media was changed 24 hours post infection. Different concentrations of CSA-44 were added to test their anti-viral effects. Each concentration has 12 wells for test. Cells were cultured in the presence of CSA-44 for […] and cell viability was quantified.
(1) HFF cells (5×104) were seeded with 1 ml of DMEM media supplemented with 10% FBS in each well of four 24-well tissue culture plates. (2) Cells were cultured for 3 days until HFF cells in each well attained 90% confluency (media was changed 1 day before infection). […] Cells were cultured for two weeks, and cell viability was quantified. […]

[1] = Cytotoxicity in human primary cell cultures (Trypan Blue Staining); conditions: human, CC50
Procedure: (1) HFF (human foreskin fibroblast) cells (2×105) were seeded with 2 ml of DMEM medium supplemented with 10% FBS in each well of two 12-well tissue culture plates. (2) Cells were cultured for 3 days. CSA-44 was added to test for cell toxicity. Eleven concentrations were tested: 40 μg/ml, 30 μg/ml, […], 17.5 μg/ml, 15 μg/ml, 12.5 μg/ml, 10 μg/ml, 7.5 μg/ml, 5 μg/ml, 2.5 μg/ml, and 1 μg/ml. Samples with concentration of 0 μg/ml were used as the control. Each concentration was tested in duplicates with two wells. (3) Cells were cultured for 48 hours with CSA-44. Trypan Blue Staining was used to determine the numbers of living and dead cells on a hemocytometer. Percentages of living and dead cells in each sample were calculated.
(1) HFF cells (2×105) were seeded with 2 ml of DMEM medium supplemented with 10% FBS in each well of two 12-well tissue culture plates. (2) Cells were cultured for 3 days. CMA Conjugate was added to test for cell toxicity. Eleven concentrations were tested. They were 100 μg/ml, 80 μg/ml, 60 μg/ml, 50 μg/ml, 40 μg/ml, 30 μg/ml, 25 μg/ml, 20 μg/ml, 15 μg/ml, 10 μg/ml, and 5 μg/ml. Samples with concentration of 0 μg/ml were used as the control. Each concentration was tested in duplicates with two wells. (3) Cells were cultured for 48 hours with CMA Conjugate. […] Percentages of living and dead cells in each sample were calculated.

Calu-3 cells = experiment: Cytotoxicity Assay (MTS); conditions: 24 h
Procedure: Calu-3 cells were seeded in 96-well plates one day prior to testing. At 80-90% confluency, growth medium was removed and replaced with a medium containing 50 μg/mL of compound 12 dilutions. All treatments were added in quadruplicate or quintuplicate wells. Plates were incubated for 24 h before being washed and replaced with fresh untreated growth medium. MTS was added to each well as recommended by the manufacturer's protocol (CellTiter 96 Aqueous One Solution Cell Proliferation Assay, Promega, Madison, WI, USA) and incubated for 3-4 h.
After incubation, absorbance was measured at 490 nm on a SpectraMax M5 (Molecular Devices, LLC, San Jose, CA, USA) plate reader with SoftMax Pro 6.2.1 software.

With `C[C@H](CCC(=O)NCCNC(=O)CCCC[C@@H]1SCC2NC(=O)NC21)C1CCC2C3C(C[C@H](OC(=O)CCN)[C@@]21C)[C@@]1(C)CC[C@@H](OC(=O)CCN)CC1C[C@H]3OC(=O)CCN` (stereo partly drawn) [Compound 12] the EC50 (human coronavirus 229E) was 3 µg/mL (≈ 3.37 µM), the CC50 at 48 h [1] was about 65 µg/mL (≈ 73 µM) and the “IC50 (i.e., CC50)” value (Calu-3 cells) was 154 µM.
